Experimental data from patent publication US20050038111A1, “Pharmaceutical formulation comprising bicalutamide” (priority 2001, published 2005).
Where a name gives a salt, the structure may show the parent alone.

What was measured:
[1] = pH shift dissolution test (SGF pH 1.5 then pH 6.5); assay type: physicochemical; conditions: 1 h SGF pH 1.5 then 1 h at pH 6.5
[2] = Crystallinity assessment by X-ray powder diffraction (XRPD); assay type: physicochemical
Description: Dispersion prepared from a solution of bicalutamide and tamoxifen citrate.
X-ray diffraction analysis was performed according to standard methods which can be found in e.g. Bunn, C. W. (1948), Chemical Crystallography, Clarendon Press, London; or Klug, H. P. & Alexander, L. E. (1974), X-Ray Diffraction Procedures, John Wiley and Sons, New York.

tamoxifen in solution post shift [1]: approx. 80% | crystalline tamoxifen citrate by XRPD [2]: crystalline
Compound: CC/C(=C(\c1ccccc1)c1ccc(OCCN(C)C)cc1)c1ccccc1 [tamoxifen citrate, (Z)-2-[p-(1,2-diphenylbut-1-enyl)phenoxy]ethyldimethylamine]
